“Also recorded” adds a separate entry of the source. Read-outs that look alike come from different tables or passages of the source.
Experiments:
[1] = Stability in aqueous solutions (sodium phosphate buffer, 37° C.); assay type: physicochemical; conditions: for half-life: buffer, read-out: Half-life in aqueous solution (converted)
Protocol: […] The solutions of prodrugs were prepared by adding 10 μL of stock solution (10 mg/mL in DMSO) to the preheated buffer. The solutions were stirred at a constant temperature of 37° C. At appropriate intervals, 75 μL of samples were mixed with 75 μL of MeOH and analyzed for remaining prodrug by HPLC.
The pseudo-first-order rate constants (kobs) and half-lives (t1/2) for the degradation of the prodrugs were determined from the linear slopes of the plots by taking the logarithm of the remaining prodrug over time. Equations: kobs=slope/−2.303 and t1/2=ln2/kobs.

[2] = Stability in 80% human plasma (serum); assay type: in vitro ADME; conditions: 80% human serum (pH 7.4) at 37° C.
Protocol: The rates of the degradation of the prodrugs were determined in 80% human serum (pH 7.4) at 37° C. as an indication of the susceptibility of prodrugs to undergo bioconversion after reaching the circulation. The reactions were initiated by adding the first 10 μL of the prodrug stock solution (10 mg/mL in DMSO) to 200 μL preheated sodium phosphate buffer solution (50 mM, pH 7.4, ionic strength 0.5), and then adding 800 μL preheated human serum. The solutions were stirred at a constant temperature of 37° C. At appropriate intervals, 50 μL of samples were mixed with 150 μL of ice-cold MeOH. After immediate mixing and centrifugation (5 min at 14.000 rpm), the resulting clear supernatant was analyzed for the remaining prodrug by HPLC.

[3] = Metabolic stability in human liver microsomes; assay type: in vitro ADME; conditions: for half-life at 15 µg/mL / half-life: both sexes, human, microsomes
Protocol: The prodrugs were incubated with the human liver microsomes at 37° C. as an indication of the susceptibility of prodrugs to undergo bioconversion in the liver. The reactions were initiated by adding 1.5 μL of the prodrug stock solution (10 mg/mL in DMSO) to a preheated solution consisting of 748.5 μL potassium phosphate buffer solution (20 mM, pH 7.4, ionic strength 0.5), 200 μL NADPH, and 50 μLhuman liver microsomes (mixed gender, 0.5 ml at 20 mg/mL). The solutions were stirred at a constant temperature of 37° C. At appropriate intervals, 50 μLof samples were mixed with 100 μL of ice-cold MeOH. After immediate mixing and centrifugation (5 min at 14.000 rpm), the resulting clear supernatant was analyzed for the remaining prodrug by HPLC.

[4] = test system: reconstructed human oral buccal epithelium cells (SkinEthic HOE, TR146 cells); experiment: In vitro buccal permeability (SkinEthic human oral epithelium); assay type: in vitro ADME; conditions: for Buccal permeation compared with parent cannabinoid (in words): 5% ethanol suspension; for Species making up the buccal flux / formation of parent cannabinoid / Flux (buccal) / Flux compared with parent cannabinoid: Table 4; for Flux (buccal): suspension ca. 2 mg/ml in 5% EtOH/phosphate buffer pH 6.8, 37° C., receiver 15% HP-β-cyclodextrin; for Flux compared with parent cannabinoid: buccal flux relative to parent
Protocol: (§1) The in vitro permeability studies were carried out in commercial reconstructed human oral buccal epithelium cells (SkinEthic™ human oral epithelium). The SkinEthic™ HOE model is composed of TR146 cells (derived from a squamous cell carcinoma of the buccal mucosa) cultivated on an inert polycarbonate filter at the air-liquid interface in a chemically defined medium. This model forms an epithelial tissue devoid of stratum corneum, resembling histologically to the mucosa of the oral cavity.
Upon receiving the cells, each insert (0.5 cm^2 or 0.33 cm^2) was placed in a plate containing 800 μL fresh medium at room temperature. The culture dishes were placed in the incubator at 37° C., 5% CO2, and saturated humidity overnight. Next day, the inserts were placed in a plate containing 800 μL 15% HP-β-cyclodextrin in H2O. The prodrugs were dissolved in 100% EtOH (5% (V/V) final conc.), and then sodium phosphate buffer solution (50 mM, pH 6.8, isotonic, 37° C.) was added (95% (V/V) final conc.). 400 μL of the prodrugs were applied as suspensions (ca. 2 mg/ml). The plates were stirred gently at 37° C. At appropriate intervals, the receptor compartment was sampled (100 μL) and replenished with fresh […] solution each time. The samples were mixed with 100 μL of MeOH, and analyzed for drug (both the parent cannabinoid and the prodrug) by HPLC-MS.
The buccal flux-values for the rate of delivery of drugs were determined from Fick's law of diffusion.

[5] = test system: reconstructed human epidermis cells; experiment: In vitro skin permeability (SkinEthic Episkin reconstructed human epidermis); assay type: in vitro ADME; conditions: for Skin permeation, applied compound (parent or intact prodrug): receiver 15% HP-beta-CD pH 7.4
Protocol: as §1, with “epidermis” for “oral buccal epithelium”, “(SkinEthic™ Episkin Reconstructed” for “(SkinEthic™”, “epidermis). This” for “oral epithelium). The SkinEthic™ HOE”
Upon receiving the cells, each insert (0.5 cm^2 or 0.33 cm^2) was placed in a plate containing 800 μL fresh medium at room temperature. The culture dishes were placed in the incubator at 37° C., 5% CO2, and saturated humidity overnight. Next day, the inserts were placed in a plate containing 800 μL 15% HP-β-cyclodextrin in H2O. CBD and CBG, and prodrugs CBDp27 and CBGp1 were dissolved in two different vehicles, 1:1:1 prop gly:water:EtOH/6% Brij 98, and 100% mineral oil. The receiver solution was 15% HP-beta-CD in phosphate buffer (pH 7.4). 400 μL the prodrugs were applied as suspensions (ca. 2 mg/ml). The plates were stirred gently at 37° C. At appropriate intervals, the receptor compartment was sampled (100 μL) and replenished with fresh […] solution each time. The samples were mixed with 100 μL of MeOH, and analyzed for drug (both the parent drug and prodrug) by HPLC-MS.
The flux-values for the rate of delivery of drugs were determined from Fick's law of diffusion.

[6] = vehicle solvent mix (1:1:1 prop gly:water:EtOH/6% Brij 98)
[7] = Table 5, aqueous buffer pH 6.8, 37° C., single determinations
[8] = pH 6.8, Table 5, aqueous buffer pH 6.8, 37° C., single determinations
[9] = pH 7.4, Table 5, 37° C., NADPH, read-out: Half-life in human liver microsomes (single determinations) (converted)
[10] = pH 7.4, Table 5, average of determinations, read-out: Half-life in human liver microsomes (avg.) (converted)

## C=C(C)[C@@H]1CCC(C)=C[C@H]1c1c(O)cc(CCCCC)cc1OC(=O)NCCN(C)C [CBDp27, (1′R,2′R)-6-hydroxy-5′-methyl-4-pentyl-2′-(prop-1-en-2-yl)-1′,2′,3′,4′-tetrahydro-[1,1′-biphenyl]-2-yl (2-(dimethylamino)ethyl)carbamate]
[1]; Table 3, aqueous buffer pH 6.8, 37° C.
  Half-life in aqueous solution: 10.2 min
[1]; Table 3, pH 3
  Half-life in aqueous solution: (pH 3 = stable,
[1]; Table 3, pH 4
  Half-life in aqueous solution: pH 4 = stable,
[1]; Table 3, pH 5
  Half-life in aqueous solution: pH 5 = stable,
[1]; pH 6.8, Table 3, aqueous buffer pH 6.8, 37° C.
  half-life: 8.4 min
[1]; pH 7.4, Table 3, pH 7.4
  half-life: 52.2 min
[1]; pH 8, Table 3, pH 8
  half-life: 65.4 min
[1]; pH 9, Table 3, pH 9
  half-life: 98.4 min
[2]; Table 3
  Half-life in serum: stable
[3]; Table 3, 37° C., NADPH
  Half-life in human liver microsomes (single determinations): 3.13; 3.13 h
[3]; pH 7.4, Table 3, 37° C., NADPH, read-out: Half-life in human liver microsomes (single determinations) (converted)
  half-life at 15 µg/mL: 188 min
[3]; pH 7.4, Table 3, average of determinations, read-out: Half-life in human liver microsomes (avg.) (converted)
  half-life at 15 µg/mL: 188 min
[4]
  Buccal permeation compared with parent cannabinoid (in words): better than that of CBD; also recorded: superior when compared to CBD and other prodrugs
[4]; Table 2, remark in flux cell
  Species making up the buccal flux (parent vs intact prodrug): CBD + prodrug
[5]; mineral oil
  Skin permeation of prodrug relative to parent cannabinoid: ~140 fold
[5]; solvent mix
  Skin permeation of prodrug relative to parent cannabinoid: ~40 fold
[5]; vehicle mineral oil
  Skin permeation, applied compound (parent or intact prodrug): 3.28 ± 0.15 nmol/cm^2/h
[5]; [6]
  Skin permeation, applied compound (parent or intact prodrug): 47.42 ± 5.23 nmol/cm^2/h

## CCCCCc1cc(O)c(C/C=C(\C)CCC=C(C)C)c(OC(=O)C2CCNC2)c1 (centres unmarked) [CBGp1, (E)-2-(3,7-dimethylocta-2,6-dien-1-yl)-3-hydroxy-5-pentylphenyl pyrrolidine-3-carboxylate]
[1]; [7]
  Half-life in aqueous solution: 32.4 min
[1]; [8]
  half-life: 30 min
[2]; Table 5
  Half-life in serum: 44.4 min
[2]; human, serum, pH 7.4, Table 5
  half-life: 42 min
[3]; Table 5, 37° C., NADPH
  Half-life in human liver microsomes (single determinations): 40.2 min
[3]; [9]
  half-life: 38.4 min
[3]; [10]
  half-life: 39.6 min
[4]; remark in flux cell
  Species making up the buccal flux / formation of parent cannabinoid: (CBG + prodrug)
[4]
  Flux (buccal): 111.79 ± 2.59 nmol/cm^2/h
[5]; mineral oil
  Skin permeation of prodrug relative to parent cannabinoid: ~13 fold
[5]; solvent mix
  Skin permeation of prodrug relative to parent cannabinoid: > 300 fold
[5]; vehicle mineral oil
  Skin permeation, applied compound (parent or intact prodrug): 0.54 ± 0.19 nmol/cm^2/h
[5]; [6]
  Skin permeation, applied compound (parent or intact prodrug): 148.0 ± 40.9 nmol/cm^2/h

## CCCCCc1cc(OC(=O)N2CCN(C)CC2)c(C/C=C(\C)CCC=C(C)C)c(OC(=O)N2CCN(C)CC2)c1 [CBGp3, (E)-2-(3,7-dimethylocta-2,6-dien-1-yl)-5-pentyl-1,3-phenylene bis(4-methylpiperazine-1-carboxylate)]
[1]; [7]
  Half-life in aqueous solution: 22.8 min
[1]; [8]
  half-life: 16.8 min
[2]; Table 5
  Half-life in serum: No degradation
[3]; [10]
  half-life at 15 µg/mL: 114 min
[4]
  Flux compared with parent cannabinoid: 2.6-times better
  Flux (buccal): 30.60 ± 2.02 (prodrug) nmol/cm^2/h
[4]; listed as bis-methylpiperazine carbamate prodrug of CBG
  Flux compared with parent cannabinoid: 2.6 times
[4]; remark in flux cell
  Species making up the buccal flux / formation of parent cannabinoid: NO significant formation of CBGp2 or

## CCCCCc1cc(O)c(C/C=C(\C)CCC=C(C)C)c(OC(=O)N2CCNCC2)c1 [CBGp5, (E)-2-(3,7-dimethylocta-2,6-dien-1-yl)-3-hydroxy-5-pentylphenyl piperazine-1-carboxylate]
[1]; [7]
  Half-life in aqueous solution: 15.6 min
[1]; [8]
  half-life: 22.8 min
[2]; Table 5
  Half-life in serum: No degradation
[3]; Table 5, 37° C., NADPH
  Half-life in human liver microsomes (single determinations): 107 min
[3]; [9]
  half-life at 15 µg/mL: 77.4 min
[3]; [10]
  half-life at 15 µg/mL: 92.4 min
[4]
  Flux compared with parent cannabinoid: No improvement
  Flux (buccal): 10.31 ± 0.54 (prodrug) nmol/cm^2/h
[4]; remark in flux cell
  Species making up the buccal flux / formation of parent cannabinoid: NO significant formation of CBG

## CCCCCc1cc(OC(=O)N2CCN(C)CC2)c2c(c1)OC(C)(C)[C@@H]1CCC(C)=C[C@@H]21 [THCp1, (6aR,10aR)-6,6,9-trimethyl-3-pentyl-6a,7,8,10a-tetrahydro-6H-benzo[c]chromen-1-yl 4-methylpiperazine-1-carboxylate]
[1]; [7]
  Half-life in aqueous solution: 24.6 min
[1]; [8]
  half-life: 39.6 min
[2]; Table 5
  Half-life in serum: No degradation
[3]; Table 5, 37° C., NADPH
  Half-life in human liver microsomes (single determinations): 301 min
[3]; [9]
  half-life: 158 min
[3]; [10]
  half-life: 230 min
[4]
  Flux compared with parent cannabinoid: No improvement
  Flux (buccal): 19.22 ± 0.29 (prodrug) nmol/cm^2/h
[4]; remark in flux cell
  Species making up the buccal flux / formation of parent cannabinoid: NO significant formation of THC

## CCCCCc1cc(OC(=O)N2CCNCC2)c2c(c1)OC(C)(C)[C@@H]1CCC(C)=C[C@@H]21 [THCp3, (6aR,10aR)-6,6,9-trimethyl-3-pentyl-6a,7,8,10a-tetrahydro-6H-benzo[c]chromen-1-yl piperazine-1-carboxylate]
[1]; [7]
  Half-life in aqueous solution: 64.2 min
[1]; [8]
  half-life: 45.6 min
[2]; Table 5
  Half-life in serum: No degradation
[3]; [10]
  half-life: 219 min
[4]
  Buccal permeation compared with parent cannabinoid (in words): slightly better than THC
  Flux compared with parent cannabinoid: 1.6-times better
  Flux (buccal): 31.30 ± 1.31 (prodrug) nmol/cm^2/h
[4]; remark in flux cell
  Species making up the buccal flux / formation of parent cannabinoid: NO significant formation of THC
